# Measured values taken from patent US12161669B2, “Compositions and methods for cell targeting therapies” (UMC UTRECHT HOLDING B.V., priority 2017, dated 2024).
# pKd: −log10 of the molar value.
# How the values were obtained:
# RhoB GTPase = biological target: T1, RhoB GTPase (Homo sapiens, UniProt P62745); assay: Biolayer interferometry of RhoB binding to BTN3A1 (CD277) intracellular domains; details: for kd (1/s) / kd(1/Ms) / pKd: BLI, 1:1 binding model; for pKd: RhoB immobilized on Ni-NTA biosensor, cHDMAPP at 1:1 where named; for RhoB binding to recombinant CD277 intracellular domain constructs: without phosphoantigen
# T1 construct: The full length RhoB protein was cloned into the pET 28a vector; thrombin cleavage site (C); made in house; host or cells: Escherichia coli BL21
# Method: To determine whether CD277 exists as a homodimer when expressed in a cellular context, and to study RhoB-CD277 interactions at even higher resolution, close interactions by utilizing fluorescence resonance energy transfer (FRET) were examined. Flow cytometry FRET measurements were performed on ABP-sensitive HEK 293 cells, by either overexpressing FRET compatible fusion proteins or labeling endogenous proteins with antibodies coupled to FRET-compatible fluorochromes. […] Biolayer Interferometry (BLI) was used to formally define a possible docking site for RhoB on the intracellular domain of CD277.
# The interactions between RhoB and BTN3A1 full-length intracellular domain (BFI) or BTN3A1 B30.2 domain were measured using Biolayer interferometry (BLItz, FortéBio). The BLI buffer used in baseline equilibration and the dissociation step was prepared with 10 mM Hepes pH7.2, 150 mM NaCl, 0.02% azide, 5 mM MgCl2, 4 mM BME. RhoB, at a concentration of 2 mg/ml, was immobilized on the Ni-NTA biosensor hydrated with the BLI buffer using the basic kinetics method with the following parameters: 30 s for baseline, 300 s for association and 300 s for dissociation. The RhoB-mounted biosensor was then blocked by 1 mg/ml BSA and equilibrated with the BLI buffer using a similar method with the following parameters: 30 s for baseline, 120 s for association and 120 s for dissociation. The buffer run served as a reference for the subsequent experiments. […] The ratio between cHDMAPP and BFI or B30.2 domain was kept at 1:1 for these measurements. The rate and affinity constants for binding interactions were analyzed by Biaevulation (Biacore Life Sciences). The data was truncated to 180 s and the ka and kd were fitted simultaneously using 1:1 binding with drift baseline model.
# CD277 [1] = assay: Flow cytometry FRET between BODIPY FL-stained membrane and anti-CD277 mAbs (CD277 conformational change), HEK 293 cells; assay type: cell-based; details: with ABP
# Method: Conformational change of BTN3 molecule was determined similarly as described in ([…] et al., 2001). Cells were labeled with 5 ug/ml BODIPY-FL DPHE (donor) (Life Technologies) for 10 minutes on ice and then 10 minutes at 37 C, then washed extensively with ice-cold PBS. Cells were subsequently labeled with mouse anti-CD277 mAbs (either clone #20.1 or #103.2) and Alexa594-conjugated Goat anti-Mouse Fab fragments (Jackson ImmunoResearch). After washing, cells were resuspended in ice cold PBS and measured immediately using a FACS Canto-II flowcytometer (BD). FRET efficiency was calculated from the fractional decrease of the donor fluorescence in the presence of the acceptor.
# CD277 and F-actin = assay: Colocalization of CD277 and F-actin in HEK 293 cells; assay type: cell-based
# Method: To determine colocalization between BTN3 molecules and the actin cytoskeleton, HEK 293 cells were grown onto poly-L-lysin-coated coverslips and pretreated with either calpeptin (2 μg/ml) or C3 transferase (20 μg/ml) prior to treating samples with pamidronate Cells were fixed, permeabilized and BTN3 and F-actin were stained with DyLight 680-conjugated BTN3 antibody (clone BT3.1, Novus Biologicals) and Fluorescein-coupled phalloidin (Sigma), respectively. The correlation coefficient between BTN3 and F-actin signal was determined as a measure of colocalization using Volocity software.
# CD277 [2] = assay: FRAP of CD277-emGFP membrane mobility in HEK 293 cells; assay type: cell-based; details: 293 HEK cells; for CD277 membrane mobility (immobile fraction, FRAP): single agent
# Method: FRAP analysis was performed as previously described (Harly et al., 2012, Sandstrom et al., 2014). In brief, HEK293FT cells expressing either EmGFP-fused CD277 were laid on m-slides (Ibidi) and analyzed using a Nikon A1 RS confocal microscope (60×NA 1.40 oil immersion objective). Selected rectangular areas were photobleached for 500 ms by using full power of laser intensity (>90% of loss of fluorescence). Images were collected every 5 s, before (30 s) and after (120 s) bleaching using low laser intensity. Images were analyzed with Metamorph 7.5 (Molecular Devices, Universal Imaging) and NIS (Nikon) imaging software. The resulting curves were fitted using one-phase exponential equations.
# LCL 48 cells = assay: IFNγ by Vγ9Vδ2 TCR+ T cells against Rho-modulator pretreated EBV-LCL 48; assay type: cell-based; details: target cell pretreatment with Rho inhibitor, in combination with pamidronate or IPP
# Method: (§1) The impact of RhoB GTPase activity on Vγ9Vδ2 TCR+ T cell activation was assessed by […] different tumor cell lines with either the Rho GTPase activator calpeptin or inhibitor C3 transferase. […] To specify that enzymatic activity of RhoB regulates tumor cell recognition by Vγ9Vδ2 TCR+ T cells, we transfected HEK 293 cells with wildtype or dominant negative form corresponding to the GDP-bound state (RhoB-DN), or with the constitutively active form corresponding to the GTP-bound form (RhoB-CA) of RhoB (Kamon et al., 2006) and used them as target cells for Vγ9Vδ2 TCR+ T cells (FIG. 4E).
# (§2) Alternatively, Vγ9Vδ2 TCR-transduced T cells and target cells were cocultured as above in round-bottom 96-well plates, and IFNγ levels in supernatants were measured by ELISA. Where indicated, target cells were pretreated with pamidronate (100 μM), IPP (15 μM), FTI (10 μM), GGTI (50 μM), calpeptin (2 μg/ml) or C3 transferase (20 μg/ml) prior to coincubation. For testing stimulation of WT1 αβTCR-transduced T cells, the HLA-A2+ cell lines EBV-LCL 48 and MZ1851RC were pulsed with 10 μM WT1126−134 peptide.
# EBV-LCL 93 cells = assay: IFNγ by Vγ9Vδ2 TCR+ T cells against Rho-modulator pretreated EBV-LCL 93; assay type: cell-based; details: target cell pretreatment with Rho activator, in combination with pamidronate or IPP
# Method: as §1, §2
# T1 sequence (O00481 272-513 partner limits assumed): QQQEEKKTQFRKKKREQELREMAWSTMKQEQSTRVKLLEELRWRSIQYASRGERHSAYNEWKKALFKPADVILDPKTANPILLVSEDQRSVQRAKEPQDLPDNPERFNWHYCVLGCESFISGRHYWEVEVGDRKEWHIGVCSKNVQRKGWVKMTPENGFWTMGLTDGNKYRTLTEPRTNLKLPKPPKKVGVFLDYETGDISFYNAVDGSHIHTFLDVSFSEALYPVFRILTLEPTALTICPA
# T1 sequence (P62745 1-192 limits assumed): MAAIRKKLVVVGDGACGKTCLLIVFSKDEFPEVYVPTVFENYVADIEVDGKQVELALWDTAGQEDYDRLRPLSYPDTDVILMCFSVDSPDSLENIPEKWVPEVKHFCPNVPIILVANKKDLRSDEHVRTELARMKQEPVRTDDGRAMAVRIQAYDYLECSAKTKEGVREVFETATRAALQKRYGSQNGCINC
kd (1/s) (RhoB GTPase),kd(1/Ms) (RhoB GTPase),pKd (RhoB GTPase),RhoB binding to recombinant CD277 intracellular domain constructs (RhoB GTPase),Compound,"CD277 membrane mobility (immobile fraction, FRAP) (CD277 [2])",also measured
0.206 s⁻¹,2020 M⁻¹ s⁻¹,3.99,significantly reduced,RhoB-B30.2: interaction of RhoB with recombinant CD277 B30.2 domain lacking the N terminal connector region,,
,,,,C3 transferase,,effect on ABP-driven conformational changes of the CD277 homodimer (CD277 [1]): did not prevent; effect on ABP-induced CD277-actin segregation (CD277 and F-actin; pretreatment before pamidronate): prevented ABP-induced CD277-actin segregation; effect on ABP-induced immobilization of CD277 (CD277 [2]; together with zoledronate): counteracted this ABP-effect; activation of Vγ9Vδ2 TCR+ T cells by LCL 48 cells (IFNγ) (LCL 48 cells): significantly reduced activation
,,,,"O=P(O)(O)C(O)(Cn1ccnc1)P(=O)(O)O [zoledronate, zoledronic acid monohydrate]",decreased CD277 membrane mobility,
,,,,"C/C(=C\CCP(=O)(O)OP(=O)(O)O)CO [cHDMAPP, (2E)-1-hydroxy-2-methylpent-2-enyl-pyrophosphonate]",,RhoB binding to BFI in the presence of soluble phosphoantigen (RhoB GTPase; phosphoantigen 1:1 with BFI): almost completely abolished
0.04351 s⁻¹,2200 M⁻¹ s⁻¹,4.71,detected,RhoB-BFI: interaction of RhoB GTPase with recombinant full length BTN3A1 intracellular domain (BFI),,
,,,,CCCC[C@@H](C=O)NC(=O)[C@H](CC(C)C)NC(=O)OCc1ccccc1 [calpeptin],induced immobilization of CD277 to similar levels as those of ABP treatment alone,recognition of EBV-LCL 93 cells by Vγ9Vδ2 TCR+ T cells (IFNγ) (EBV-LCL 93 cells): significantly sensitized; colocalization between CD277 and F-actin (CD277 and F-actin; single agent vs medium): reduced tantalization between CD277 and F-actin to comparable levels observed with ABP treatment
